The record followed here is patent US20160050929A1, “METHODS OF CONTROLLING NEONICOTINOID RESISTANT PESTS” (SYNGENTA PARTICIPATIONS AG, priority 2013, published 2016).

The test system of this data set is Orius laevigatus. Put plainly: Safety to beneficial species: test on Orius laevigatus. The class given is in vivo. As to conditions: Orius laevigatus adults; for Corrected Mortality (%) 2 DAI: 2 days after infestation; for Corrected Mortality (%) 4 DAI: 4 days after infestation. As for the experimental part: Phaseolus vulgaris var. Fulvio (french bean) plants were reduced to one leaf. With the leaves held in a horizontal position, a track sprayer was used to treat the plants at a rate corresponding to […]. Once dry, leaf discs were collected from the plants and placed treated side up in petri dishes containing 1% water agar.
A paper triangle was added for shelter, and a suitable amount of Ephestia eggs were added as a food supply. Five (5) Orius laevigatus (predatory bug, Syngenta Bioline) adults were added and the dishes closed with a cotton filter and perforated plastic lid. The dishes were incubated in a climate chamber at 25° C., 75% relative humidity, 16:8 h light/dark regime.
Six replicates were provided for each treatment and concentration level. The number of living and dead Orius laevigatus were counted two and four days after infestation (DAI). At the day two evaluation the food supply was replenished.

Structures are written as SMILES.

For `C#CCN1[C@@H]2CC[C@H]1C[C@](C#N)(c1cncc(C#C)c1)C2` [Compound 1.070], the “Corrected Mortality (%) 2 DAI” value runs as follows: (rate 50 ppm) 0%; (rate 100 ppm) 0%; (rate 200 ppm) 0%. In addition, the “Corrected Mortality (%) 4 DAI” value (rate 50 ppm) amounted to 0%, the “Corrected Mortality (%) 4 DAI” value (rate 100 ppm) is recorded as 0% and the “Corrected Mortality (%) 4 DAI” value (rate 200 ppm) was 0%.

Turning to `O=[N+]([O-])NC1=NCCN1Cc1ccc(Cl)nc1` [Imidacloprid, imidacloprid], the “Corrected Mortality (%) 2 DAI” value by setting is: (rate 50 ppm) 11%; (rate 100 ppm) 43%; (rate 200 ppm) 75%. Further, the “Corrected Mortality (%) 4 DAI” value (rate 50 ppm) is on record as 30%, the “Corrected Mortality (%) 4 DAI” value (rate 100 ppm) came to 65% and the “Corrected Mortality (%) 4 DAI” value (rate 200 ppm) is recorded as 100%.
